Laboratory results from patent publication US11667602B2, “Compounds and their use” (AstraZeneca AB, priority 2020, dated 2023).
≈ marks a conversion by molar mass, not a printed value. Like-named read-outs stand apart in the source and are kept apart here.

Legend:
[1] = Rat Hepatocyte Stability (Test E); type: in vitro ADME; settings: geometric mean if run multiple times
Outline: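 Run per the published AstraZeneca-type rat hepatocyte stability protocol (Wernevik et al. panel). Values are mean intrinsic clearance, Clint in μl/min/10^6 cells; geometric mean used for repeated runs.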

[2] = Human Hepatocyte Stability (Test D); type: in vitro ADME; settings: cryopreserved pooled human hepatocytes (LiverPool 10-Donor), geometric mean if run multiple times
Outline: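 Pooled 10-donor cryopreserved human hepatocytes (≥80% viable) in L-15 medium at 0.25×10^6 cells per 0.25 mL well. Compound added from 100 μM acetonitrile solution; incubated at 37 °C with shaking, acetonitrile-quenched, LC-MS analysed. Clint (μL/min/10^6 cells) from ln % parent vs time slope; geometric mean of repeat runs.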

[3] = Solubility (Test F); type: physicochemical; settings: arithmetic mean if run multiple times
Protocol: The assay was conducted according to the Solubility Assay described in pages 164-167 of Wernevik, J. et al., “A Fully Integrated Assay Panel for Early Drug Metabolism and Pharmacokinetics Profiling”, Assay and Drug Development Technologies, 2020, 18(4), 157-179. Data are reported in Table 36 as solubility ([…]. Where the assay was run multiple times for the same compound, the arithmetic mean is reported.

[4] = Human Liver Microsomal Stability (Test C); type: in vitro ADME
Outline: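 Human liver microsome incubation per the Wernevik et al. integrated DMPK panel protocol. Intrinsic clearance reported as CLint in μl/min/mg protein, averaged arithmetically over repeat runs.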

[5] = Human Plasma Protein Binding (Test B); type: in vitro ADME; settings: fraction unbound (fu)
Outline: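 Human plasma protein binding run per the published Wernevik et al. (2020) integrated DMPK panel protocol. Values are fraction unbound (fu, % free); repeat runs averaged arithmetically.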

[6] = target: T1, human RXFP1 (Homo sapiens, UniProt Q9HBX9); test: RXFP1 Hu cAMP (Test A); type: cell-based; design: expressed in transfected cells; host or cells: Jump-In T-REx CHO-K1 cells (ThermoFisher), induced with 10 ng/ml doxycycline for 24 h
T1 sequence (Q9HBX9 1-757): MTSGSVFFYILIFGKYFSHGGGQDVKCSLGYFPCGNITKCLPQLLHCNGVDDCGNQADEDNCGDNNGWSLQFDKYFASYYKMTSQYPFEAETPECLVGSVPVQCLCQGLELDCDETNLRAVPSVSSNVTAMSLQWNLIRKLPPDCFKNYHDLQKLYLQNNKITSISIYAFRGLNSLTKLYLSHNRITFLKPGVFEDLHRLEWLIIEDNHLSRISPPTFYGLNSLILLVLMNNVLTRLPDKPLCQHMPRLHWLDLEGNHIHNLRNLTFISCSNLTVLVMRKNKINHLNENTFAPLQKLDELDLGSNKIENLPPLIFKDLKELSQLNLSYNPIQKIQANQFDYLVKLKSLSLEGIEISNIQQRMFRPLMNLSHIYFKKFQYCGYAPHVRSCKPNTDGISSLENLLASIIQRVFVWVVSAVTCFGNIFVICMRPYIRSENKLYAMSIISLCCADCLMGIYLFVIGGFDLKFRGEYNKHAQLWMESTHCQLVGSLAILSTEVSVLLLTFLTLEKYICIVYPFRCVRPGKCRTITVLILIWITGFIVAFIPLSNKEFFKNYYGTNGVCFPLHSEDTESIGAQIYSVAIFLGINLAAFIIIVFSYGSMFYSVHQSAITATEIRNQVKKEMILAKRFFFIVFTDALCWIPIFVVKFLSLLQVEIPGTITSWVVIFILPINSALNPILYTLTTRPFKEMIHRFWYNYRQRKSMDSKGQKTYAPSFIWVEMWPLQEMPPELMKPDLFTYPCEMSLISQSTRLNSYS
Outline: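 Cells: CHO-K1 stably carrying human RXFP1, expressed after 24 h 10 ng/ml doxycycline; 0.5 mM IBMX final, HTRF detection after 2 h at room temperature.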

[7] = RXFP1 Hu cAMP, read-out: Test A EC50

Row | SMILES | hepatocyte CLint ([1]; rat, hepatocytes) | hepatocyte CLint at 1 µM ([2]; human) | solubility [3] | microsomal CLint ([4]; human, liver microsomes) | Test B Human Plasma Protein Binding (% free) [5] | Test A Sinf ([6]; RXFP1 Hu cAMP) | EC50 [6, 7] | hepatocyte CLint ([1]; rat hepatocytes) | hepatocyte CLint at 1 µM [2] | microsomal CLint ([4]; human liver microsomes) | EC50 ([6]; Test A EC50, RXFP1 Hu cAMP)
1 | COc1cc(F)c(-c2ccc(C(=O)O)cc2)cc1C(=O)N[C@H]1[C@@H](C(=O)Nc2cc(F)cc(C(F)(F)F)c2)[C@@H]2C=C[C@H]1C2 (racemic) [Example 308] | 33 µL/min/1e6 cells | 14 µL/min/1e6 cells | > 1000 µM | 4.9 µL/min/mg | 0.16 % free | 109% |  |  |  |  | 
2 | COc1cc(C#N)c(OC2CCC(C)(C(=O)O)CC2)cc1C(=O)NC1C(C(=O)NCC2(C)CCC2)C2CCC1N2CCC(F)(F)F (single isomer, unassigned) [Example 536, (1R,4s)-4-(2-Cyano-4-methoxy-5-(((1S*,2S*,3R*,4R*)-3-(((1-methylcyclobutyl)methyl)carbamoyl)-7-(3,3,3-trifluoropropyl)-7-azabicyclo[2.2.1]heptan-2-yl)carbamoyl)phenoxy)-1-methylcyclohexane-1-carboxylic acid] |  |  | 420 µM (≈ 272 µg/mL) |  | 3.3 % free | 97% |  | 43 µL/min/1e6 cells | 130 µL/min/1e6 cells | 250 µL/min/mg | 5.1 nM
3 | COc1cc(F)c(-c2ccc(C3(C(=O)O)CC3)cc2)cc1C(=O)N[C@H]1[C@@H](C(=O)Nc2cccc(S(=O)(=O)C(F)(F)F)c2)[C@@H]2C=C[C@H]1C2 (racemic) [Example 288] | 21 µL/min/1e6 cells | 5 µL/min/1e6 cells | 24 µM (≈ 16.1 µg/mL) | 5.1 µL/min/mg | <0.32 % free | 107% |  |  |  |  | 
4 | COc1cc(F)c(O[C@H]2CC[C@@H](C(=O)O)CC2)cc1C(=O)N[C@@H]1[C@H]2CC[C@H](C2)[C@@H]1C(=O)Nc1ccc(C(F)F)cc1 [Example 181, (1S,4s)-4-(5-(((1S,2R,3S,4R)-3-((4-(Difluoromethyl)phenyl)carbamoyl)bicyclo[2.2.1]heptan-2-yl)carbamoyl)-2-fluoro-4-methoxyphenoxy)cyclohexane-1-carboxylic acid] | 48 µL/min/1e6 cells | 4.1 µL/min/1e6 cells | 680 µM (≈ 391 µg/mL) | 13 µL/min/mg | 2.3 % free | 95% | 600 nM |  |  |  | 
5 | COc1cc(Cl)c(O[C@H]2CC[C@@](C)(C(=O)O)CC2)cc1C(=O)N[C@@H]1[C@H]2CC[C@H](C2)[C@@H]1C(=O)NCC(C)(C)C(F)(F)F [Example 409] | 7.1 µL/min/1e6 cells | 3.1 µL/min/1e6 cells | 960 µM (≈ 579 µg/mL) | 18 µL/min/mg | 3.4 % free | 107% | 15 nM |  |  |  | 
6 | COc1cc(F)c(-c2ccc(C[C@H](C(=O)O)N(C)C)cc2)cc1C(=O)N[C@@H]1[C@H]2CC[C@H](C2)[C@@H]1C(=O)Nc1cccc(S(=O)(=O)C(F)(F)F)c1 [Example 292, (R)-2-(Dimethylamino)-3-(2′-fluoro-4′-methoxy-5′-(((1S,2R,3S,4R)-3-((3-((trifluoromethyl)sulfonyl)phenyl)carbamoyl)bicyclo[2.2.1]heptan-2-yl)carbamoyl)-[1,1′-biphenyl]-4-yl)propanoic acid] | 14 µL/min/1e6 cells | 4.6 µL/min/1e6 cells | 18 µM (≈ 12.7 µg/mL) | 24 µL/min/mg | 1.2 % free | 110% | 77 nM |  |  |  | 
7 | COc1cc(F)c(O[C@H]2CC[C@@H](C(=O)O)CC2)cc1C(=O)NC1=C(C(=O)Nc2ccc(F)c(C(F)(F)F)c2)CCC1 [Example 214, (1s,4s)-4-(2-Fluoro-5-((2-((4-fluoro-3-(trifluoromethyl)phenyl)carbamoyl)cyclopent-1-en-1-yl)carbamoyl)-4-methoxyphenoxy)cyclohexane-1-carboxylic acid] | 5.3 µL/min/1e6 cells | 2.3 µL/min/1e6 cells | 400 µM (≈ 233 µg/mL) | < 3 µL/min/mg | 0.090 % free | 115% |  |  |  |  | 

Further lines, with some results ahead:

Row | hepatocyte CLint ([1]; rat, hepatocytes) | hepatocyte CLint at 1 µM ([2]; human) | solubility [3] | microsomal CLint ([4]; human, liver microsomes) | Test B Human Plasma Protein Binding (% free) [5] | Test A Sinf ([6]; RXFP1 Hu cAMP) | EC50 [6, 7] | SMILES | hepatocyte CLint ([1]; rat hepatocytes) | hepatocyte CLint at 1 µM [2] | microsomal CLint ([4]; human liver microsomes) | EC50 ([6]; Test A EC50, RXFP1 Hu cAMP)
8 | 17 µL/min/1e6 cells | 5.1 µL/min/1e6 cells | 900 µM (≈ 488 µg/mL) | 24 µL/min/mg | 4.8 % free | 102% | 9.8 nM | COc1cc(F)c(O[C@H]2CC[C@@](C)(C(=O)O)CC2)cc1C(=O)N[C@H]1[C@@H](C(=O)NCC2(C)CCC2)[C@@H]2C=C[C@H]1C2 [Example 417] |  |  |  | 
9 | 12 µL/min/1e6 cells | 3.7 µL/min/1e6 cells | 650 µM (≈ 353 µg/mL) | 4 µL/min/mg | 21 % free | 108% |  | COc1cc(C#N)c(O[C@H]2CC[C@@](C)(C(=O)O)CC2)cc1C(=O)N[C@@H]1[C@H]2CC[C@H](C2)[C@@H]1C(=O)NC(C)(C)CF [Example 77] |  |  |  | 
10 | 130 µL/min/1e6 cells | 11 µL/min/1e6 cells | 750 µM (≈ 431 µg/mL) | 32 µL/min/mg | 2.2 % free | 104% | 500 nM | COc1cc(F)c(O[C@H]2CC[C@@H](C(=O)O)CC2)cc1C(=O)N[C@@H]1[C@H]2CC[C@H](C2)[C@@H]1C(=O)Nc1cccc(C(F)F)c1 [Example 10, (1S,4s)-4-(5-(((1S,2R,3S,4R)-3-((3-(Difluoromethyl)phenyl)carbamoyl)bicyclo[2.2.1]heptan-2-yl)carbamoyl)-2-fluoro-4-methoxyphenoxy)cyclohexane-1-carboxylic acid] |  |  |  | 
11 | 32 µL/min/1e6 cells | 18 µL/min/1e6 cells | 2 µM (≈ 1.34 µg/mL) | 74 µL/min/mg | <3.3 % free | 108% | 220 nM | COc1cc(F)c(-c2ccc(S(N)(=O)=O)cc2)cc1C(=O)N[C@@H]1[C@H]2CC[C@H](C2)[C@@H]1C(=O)Nc1cccc(S(=O)(=O)C(F)(F)F)c1 [Example 248] |  |  |  | 
12 | 9.3 µL/min/1e6 cells | 6.5 µL/min/1e6 cells | 690 µM (≈ 446 µg/mL) | 4.7 µL/min/mg | <0.30 % free | 110% | 88 nM | COc1cc(F)c(-c2ccc(CC(=O)O)cc2)cc1C(=O)N[C@H]1[C@@H](C(=O)Nc2cccc(S(=O)(=O)C(F)(F)F)c2)[C@@H]2C=C[C@H]1C2 (racemic) [Example 234] |  |  |  | 
13 | 14 µL/min/1e6 cells | 7.2 µL/min/1e6 cells | 940 µM (≈ 613 µg/mL) | 10 µL/min/mg | 0.95 % free | 109% | 1500 nM | COc1cc(F)c(Cc2cnn(CC(=O)O)c2)cc1C(=O)N[C@@H]1[C@H]2CC[C@H](C2)[C@@H]1C(=O)Nc1cccc(S(=O)(=O)C(F)(F)F)c1 [Example 220, 2-(4-(2-Fluoro-4-methoxy-5-(((1S,2R,3S,4R)-3-((3-((trifluoromethyl)sulfonyl)phenyl)carbamoyl)bicyclo[2.2.1]heptan-2-yl)carbamoyl)benzyl)-1H-pyrazol-1-yl)acetic acid] |  |  |  | 
14 | 21 µL/min/1e6 cells | 16 µL/min/1e6 cells | 850 µM (≈ 565 µg/mL) | 58 µL/min/mg | 9.3 % free | 108% | 420 nM | COc1cc(F)c(-c2ncc(CCC(=O)O)cn2)cc1C(=O)N[C@@H]1[C@H]2CC[C@H](C2)[C@@H]1C(=O)Nc1cccc(S(=O)(=O)C(F)(F)F)c1 [Example 323, 3-(2-(2-Fluoro-4-methoxy-5-(((1S,2R,3S,4R)-3-((3-((trifluoromethyl)sulfonyl)phenyl)carbamoyl)bicyclo[2.2.1]heptan-2-yl)carbamoyl)phenyl)pyrimidin-5-yl)propanoic acid] |  |  |  | 
